From article PMC11199504, “New hemisynthetic derivatives of sphaeropsidin phytotoxins triggering severe endoplasmic reticulum swelling in cancer cells” (Scientific Reports, 2024)

Legend:
[1] = system: SKMEL-28 melanoma and U373 glioblastoma cells; test: Morphological evaluation by phase contrast microscopy / videomicroscopy; type: cell-based, human
Method: For the morphological evaluation of the effects induced by compounds 1 and 13, 6 × 10^4 cells were seeded on glass coverslips placed in 6 well plates a minimum 24 h before their treatment. At the end of the incubation period with the treatment, coverslips were rinsed once in PBS buffer and directly mounted on slides to allow visualization of the cell with an Axio.Imager.M2 microscope (G X40 and G X100).

[2] = molecular target: caspase-like activity of the proteasome (Homo sapiens, UniProt P28072); test: Cellular proteasomal caspase-like activity; type: cell-based
Sequence of caspase-like activity of the proteasome (P28072 whole entry): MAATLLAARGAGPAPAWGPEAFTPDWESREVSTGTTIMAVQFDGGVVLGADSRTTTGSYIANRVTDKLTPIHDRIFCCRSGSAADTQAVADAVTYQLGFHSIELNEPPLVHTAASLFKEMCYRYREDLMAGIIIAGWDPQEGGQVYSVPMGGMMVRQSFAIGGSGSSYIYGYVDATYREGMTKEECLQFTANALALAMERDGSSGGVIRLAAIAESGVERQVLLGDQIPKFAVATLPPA
Method: (§1) The chemotrypsin-like, trypsin-like and caspase-like activities of the proteasome were evaluated in cells with the G8660, G8861 and G8761 kits respectively according to the manufacturer’s instructions (Promega, USA). Briefly, the assays are based on the use of short amino-acid sequences coupled with luciferin and that can be specifically cleaved by each catalytic unit of the proteasomal complex. For this purpose, cells were seeded in 96 well plates 24 h before their treatment with 1 (5 µM), 13 (1 µM) for 6 h or with the positive control MG132 (1 µM) for 24 h. At the end of the treatments, cells were washed three times with PBS and permeabilized with digitonin (0.5 mg/mL; 50 µL per well) under shaking for 10 min. Then, 50 µL of a mixture of the substrate of interest and luciferase were added for 15 min under slow shaking. Luminescence levels quantified with the Active-Glo LR-100 luminometer (DSLabs, Suisse) were normalized according the number of viable cells evaluated in parallel in the same conditions by means of MTT assay.

Hct116 = test: MTT assay, Hct116 (parental sensitive); type: cell-based; details: Homo sapiens, HCT-116, 72 h, read-out: IC50 determined by MTT assays, Hct116
From the text: (§2) Cancer cell lines were obtained from either the European Collection of Cell Cultures (ECACC; Salisbury, UK) or the American Type Culture Collection (ATCC; Manassas, VA). The two glioma cell lines were the U373 (ECACC code 08061901) and Hs683 (ATCC HTB-138) cell lines. The carcinoma cell lines were the A549 non-small cell carcinoma cell line (ATCC code CCL 185) and the MCF-7 mammary breast carcinoma cell line (ATCC code HTB-22). The melanoma cell lines were the mouse B16F10 cells (ATCC code CRL-6475) and the human SKMEL-28 cells (ATCC code HTB-72). The ovarian cancer cell line A2780 and its cisplatin-resistant subline A2780cis were obtained from Sigma-Aldrich (St. Louis, MO, USA). Colon cancer HCT116 cells were obtained from ATCC (CCL-247) and the oxaliplatin-resistant subline HCT116/OxR established in the W. Berger lab[59]. The HeLa cell derivative KB-3-1 and the colchicine-selected, highly ABCB1-overexpressing subline KB-C-1 were generously donated by Dr. D. W. Shen, Bethesda, MD. RKOp53wt colon cancer cells together with the RKOp53KO (homozygous knock-out) subline[60] were generously provided by Dr. Vogelstein from John Hopkins University, Baltimore. The correct origin of all cell models was confirmed by STR during performance of the experiments. All cell lines were cultured in RPMI1640 culture medium supplemented with 10% heat-inactivated fetal bovine serum, 2% L-glutamine (0.6 mg/mL), 2% penicillin/streptomycin (200 IU/mL and 200 μg/mL) and 0.1 mg/mL gentamicin.
(§3) The MTT (3-(4,5-dimethylthiazol-2-yl)-2,5-diphenyl tetrazolium bromide) colorimetric assay has been conducted as described previously. Briefly, cells were seeded 24 h before their treatment with each compound for a period of 72 h. The concentrations tested ranged from 10 nM to 100 µM. Each assay was conducted in sextuplicates. The number of independent experiments is mentioned in the legend of the tables.
SI Table 1: IC50 determined by MTT assays. Mean concentration (± standard deviation) in µM required to
reduce the viability of cells by 50% after a 72 h treatment relative to the control.
Parental sensitive models Drug-resistant models

MCF7 = test: MTT colorimetric assay, MCF7; type: cell-based; details: Homo sapiens, 72 h treatment, mean ± SEM, sensitive to apoptosis, read-out: IC50 determined by MTT assays, MCF7
From the text: as §2, §3

[3] = molecular target: chymotrypsin-like activity of the proteasome (Homo sapiens, UniProt P28074); test: Cellular proteasomal chymotrypsin-like activity; type: cell-based; details: 13 at 1 µM, 6 h of treatment, both SKMEL-28 and U373
Sequence of chymotrypsin-like activity of the proteasome (P28074 60-263): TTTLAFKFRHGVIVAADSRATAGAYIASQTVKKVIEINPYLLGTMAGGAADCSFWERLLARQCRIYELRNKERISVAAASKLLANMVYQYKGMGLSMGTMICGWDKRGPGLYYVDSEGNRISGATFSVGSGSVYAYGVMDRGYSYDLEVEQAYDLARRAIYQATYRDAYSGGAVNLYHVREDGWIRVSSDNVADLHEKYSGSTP
Method: as §1

[4] = system: SK-MEL-28 human melanoma and U373 glioblastoma cells; test: ER swelling / vacuole origin (CellLight ER-GFP, brightfield, TEM); type: cell-based; details: SK-MEL-28 and U373 cells
From the text: To decipher the origin of vacuoles, fluorescent probes staining different cellular compartments were used: the lysosomal Red DND-99 LysoTracker®, the glibenclamide Red ER tracker®, the green FM MitoTracker® that were all purchased from Lifes Technologies (Invitrogen, Belgium) and used according to manufacturer’s instructions. The CellLight ER-GFP (Thermofisher, Belgium) staining of the ER is based on the transfection of a plasmid coding for a fusion protein made of GFP fused to the ER signal sequence of calreticulin and the KDEL ER retention signal. Briefly, 6 × 10^4 cells were seeded on glass coverslips in 6 well plates. After a minimum of 24 h, cells were treated or not with the compounds of interest. Note that concentration and duration of the treatment were determined separately for each compound prior to the experiment on the basis of the apparition of marked morphological changes in phase contrast microscopy. Sixteen hours before the end of the experiment, 4 µL/well of the reagent were added to allow transfection and expression of the GFP-fused protein by the cells. Coverslips were then washed twice in PBS and mounted on slides without fixation step to take captions with the Axio.Imager.M2 microscope (Carl Zeiss, Belgium). To evaluate the cellular distribution of 13, the Axio.Imager.M2 was specifically equipped with an M340L4 excitation source (Thorlabs) and the pseudoconfocal Zeiss ZEN deconvolution system kindly provided for demo by Carl Zeiss (Belgium) to allow direct visualization of the compound 13 itself thanks to its intrinsic fluorescent properties.
For TEM, cells were fixed with glutaraldehyde 2.5% (EM grade, Electron Microscopy Sciences, EMS) at 4 °C overnight, washed tree times in cacodylate buffer (pH 7.4) and postfixed 1 h at room temperature in 1% OsO4, (EMS), 1.5% potassium ferrocyanide (Sigma-Aldrich) in 0.15 M cacodylate buffer. This was immediately followed by a second incubation in 1% OsO4 for 1 h at room temperature. After washing in distilled water, samples were stained with 1% uranyl acetate (EMS) and serially dehydrated in increasing ethanol concentrations. Samples were then embedded in epoxy resin (Agar 100 resin, Agar Scientific Ltd) and left to polymerize for 2 days at 60 °C. Ultrathin sections (50–70 nm thick) were collected with a Leica UC6 ultra-microtome on formvar-carbon-coated copper grids and further stained with uranyl acetate and lead citrate by standard procedures. Observations were made on a Tecnai 10 transmission electron microscope (FEI) and images were captured with a Veleta camera and processed with SIS iTEM software (Olympus).

SMILES	time to cellular shrinkage ([1]; SKMEL-28 and U373)	effect on caspase-like proteasomal activity ([2]; 1 at 5 µM, 6 h)	IC50 (Hct116)	IC50 (MCF7)	time to severe vacuolization ([1]; SKMEL-28 and U373 respectively)	inhibition at 1 µM [3]	inhibition at 1 µM ([2]; 13 at 1 µM, 6 h of treatment, both SKMEL-28 and U373)	ER swelling / ER-derived vacuolization [4]
C=C[C@]1(C)C=C2C(=O)[C@@]3(O)OC(=O)[C@@]4(CCCC(C)(C)[C@H]34)[C@@]2(O)CC1 [Compound 1, sphaeropsidin A, reference compound]	≤ 6 h	stimulate caspase-like activity	3400 ± 500 nM	2410 ± 350 nM				
CC1(C=CCCCc2ccc3ccc4cccc5ccc2c3c45)C=C2C(=O)C3(O)OC(=O)C4(CCCC(C)(C)C34)C2(O)CC1 (stereo not shown) [Compound 13]			1000 ± 100 nM	300 ± 20 nM	15 to 24 h	> 60%	> 60%	severe swelling of the ER
CC1(C=CCCCc2ccc3ccc4cccc5ccc2c3c45)C=C2C(O)C3(O)OC(=O)C4(CCCC(C)(C)C34)C2(O)CC1 (stereo not shown) [Compound 16]			7100 ± 200 nM	5980 ± 190 nM				severe ER-swelling
